Data from patent publication US6642392B1 (priority 1997, dated 2003).
Like-named read-outs stand apart in the source and are kept apart here.

How the values were obtained:
Assay type in all cases: in vivo
[1] = tested on: Eiysiphe graminis f. sp. tritici; assay: Test A: wheat powdery mildew, preventive spray on wheat seedlings; conditions: wheat powdery mildew
Procedure, shortened: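 Preventive test: seedlings inoculated with powdery mildew spores one day after run-off spraying of a suspension. Ratings after 7 days in a 20° C growth chamber express percent disease control versus controls.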

Pyricularia oryzae = conditions: rice blast
Puccinia recondita = assay: Test B: wheat leaf rust, preventive spray on wheat seedlings; conditions: wheat leaf rust
Procedure, shortened: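 Preventive test: P. recondita spores were applied one day after a run-off spray of compound suspension on wheat seedlings. Plants had 24 h at 20 °C in saturated air plus 6 days in a 20 °C growth chamber. Scoring is % disease control (100 = full) relative to controls.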

Phytophthora infestans = conditions: tomato late blight
Botrytis cinerea = assay: Test E: gray mold, preventive spray on cucumber seedlings; conditions: gray mold on cucumber
Procedure, shortened: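 Preventive spray on cucumber seedlings used a suspension (3% acetone, 250 ppm Trem 014), applied to run-off one day before inoculation with Botrytis cinerea spores. Plants were held 48 h at 20° C in saturated air, then 5 days at 20° C. Percent disease control was scored relative to untreated plants.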

[2] = 100 = 100% disease control, 0 = no control relative to controls, unmarked entries (standard test concentration)
[3] = 100 = 100% disease control, 0 = no control, unmarked entries (standard test concentration)

| Compound | Test A disease control rating ([1]; tested at 40 ppm) | Test C disease control rating (Pyricularia oryzae; tested at 40 ppm) | Test B disease control rating (Puccinia recondita; tested at 40 ppm) | Test D disease control rating (Phytophthora infestans; tested at 40 ppm) | Test E disease control rating (Botrytis cinerea; tested at 40 ppm) | Test A disease control rating [1, 2] | Test C disease control rating (Pyricularia oryzae; [3]) | Test B disease control rating (Puccinia recondita; [3]) | Test D disease control rating (Phytophthora infestans; [3]) | Test E disease control rating (Botrytis cinerea; [3]) |
| --- | --- | --- | --- | --- | --- | --- | --- | --- | --- | --- |
| CCC1(C(=O)NC(C)COc2c(Cl)cc(Cl)cc2Cl)C(C)C1(Cl)Cl (stereo not drawn) [compound 118] | 83% | 0% | 0% | 0% | 0% | – | – | – | – | – |
| C=CCc1cccc(C)c1OCC(C)NC(=O)C1(CC)C(C)C1(Cl)Cl (stereo not drawn) [compound 119] | – | – | – | – | – | 31% | 32% | 0% | 0% | 0% |
| CCC1(C(=O)NC(C)COc2ccc(Cl)cc2F)C(C)C1(Cl)Cl (stereo not drawn) [compound 120] | 29% | 52% | 0% | 19% | 0% | – | – | – | – | – |
| CCC1(C(=O)NC(C)COc2ccc(F)cc2Cl)C(C)C1(Cl)Cl (stereo not drawn) [compound 121] | 71% | 53% | 0% | 0% | 0% | – | – | – | – | – |
| CCC1(C(=O)NC(C)COc2cc(F)cc(F)c2Cl)C(C)C1(Cl)Cl (stereo not drawn) [compound 123] | 90% | 53% | 0% | 0% | 0% | – | – | – | – | – |
| CCC1(C(=O)NC(C)COc2ccc(F)cc2Br)C(C)C1(Cl)Cl (stereo not drawn) [compound 124] | 83% | 0% | 0% | 0% | 0% | – | – | – | – | – |
| CCC1(C(=O)NC(C)COc2cc(F)ccc2Br)C(C)C1(Cl)Cl (stereo not drawn) [compound 125] | 90% | 99% | 0% | 0% | 0% | – | – | – | – | – |
| CCC1(C(=O)NC(C)COc2ccc(C)cc2Cl)C(C)C1(Cl)Cl (stereo not drawn) [compound 126] | 0% | 73% | 0% | 0% | 0% | – | – | – | – | – |
| CCC1(C(=O)NC(C)COc2cc(C)ccc2Cl)C(C)C1(Cl)Cl (stereo not drawn) [compound 127] | 0% | 94% | 0% | 19% | 0% | – | – | – | – | – |
| CCC1(C(=O)NCCCn2cccc2)C(C)C1(Cl)Cl (stereo not drawn) [compound 145] | – | – | – | – | – | 0% | 0% | 9% | 20% | 0% |
| CCC1(C(=O)NCCCn2cccc2Cl)C(C)C1(Cl)Cl (stereo not drawn) [compound 146] | – | – | – | – | – | 0% | 0% | 22% | 0% | 0% |
| CCC1(C(=O)NCCCn2c(Cl)cc(Cl)c2Cl)C(C)C1(Cl)Cl (stereo not drawn) [compound 148] | – | – | – | – | – | 0% | 74% | 0% | 0% | 0% |
| CCC1(C(=O)NCCCn2cccc2C#N)C(C)C1(Cl)Cl (stereo not drawn) [compound 149] | – | – | – | – | – | 30% | 53% | 27% | 0% | 0% |
| CCC1(C(=O)NCCCn2c(C)cc(C)c2C#N)C(C)C1(Cl)Cl (stereo not drawn) [compound 150] | – | – | – | – | – | 0% | 60% | 0% | 0% | 87% |
| CCC1(C(=O)NCCOc2ccccc2)C(C)C1(Cl)Cl (stereo not drawn) [compound 153] | – | – | – | – | – | 92% | 94% | 64% | 92% | 0% |
